One test has as its target ACC1 (Homo sapiens, UniProt Q13085). The test is described as follows: In vitro ACC1 inhibition assay (ADP-Glo). In kind it is biochemical. The settings on record: read-out: ACC1. On the procedure:
An exemplary procedure for the in vitro ACC inhibition assay, which can be used to determine the inhibitory action of compounds of the invention toward either ACC1 or ACC2, follows. The ADP-Glo™ Kinase Assay kit from Promega was used. The ADP-Glo™ Kinase Assay is a luminescent ADP detection assay to measure enzymatic activity by quantifying the amount of ADP produced during an enzyme reaction. The assay is performed in two steps; first, after the enzyme reaction, an equal volume of ADP-Glo™ Reagent is added to terminate the reaction and deplete the remaining ATP. Second, the Kinase Detection Reagent is added to simultaneously convert ADP to ATP and allow the newly synthesized ATP to be measured using a luciferase/luciferin reaction. Luminescence can be correlated to ADP concentrations by using an ATP-to-ADP conversion curve. The detailed procedure is as follows. 50 μL of the compound being tested (600 uM in DMSO) was added to a 384-well dilution plate. The compound was diluted 1:3 in succession in DMSO for each row for 11 wells. 0.5 μL ACC2 working solution was added to 384-well white Optiplate assay plate. 0.5 μL diluted compound solution in each column from step 2 to assay plate, each row containing 2 replicates. […] The plates were incubated at room temperature for 15 minutes. 5 μL substrate working solution was added to each well to initiate reaction. […] Plates were incubated at room temperature for 60 minutes. 10 μL ADP glo reagent was added. Plates were incubated at room temperature for 40 minutes. 20 μL kinase detection reagent was added.
Data for each concentration, as well as the positive and negative controls were averaged, and the standard deviation calculated. Percent inhibition was calculated by the formula: 100× (average negative control−compound)/(average negative control−average positive control). The IC50 for each compound was calculated by fitting the data with a non-linear regression equation: Y=Bottom+(Top-Bottom)/(1+10^((Log IC50−X)*HillSlope)), where X is the log of compound concentration and Y is percent inhibition.
The compound numbers correspond to the compound numbers in Table 1.

The target of a further test is ACC2 (Homo sapiens, UniProt O00763). Put plainly: In vitro ACC2 inhibition assay (ADP-Glo). The settings on record: read-out: ACC2. In kind it is biochemical. A digest of the protocol:
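Enzyme (human ACC1 or ACC2) and compound, serially diluted 1:3 over 11 points from a 600 uM DMSO stock, were preincubated 15 min before substrate addition.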

Molecules are shown by their SMILES. pIC50: −log10 of the molar value.

ACC2, sequence (O00763 whole entry, species assumed): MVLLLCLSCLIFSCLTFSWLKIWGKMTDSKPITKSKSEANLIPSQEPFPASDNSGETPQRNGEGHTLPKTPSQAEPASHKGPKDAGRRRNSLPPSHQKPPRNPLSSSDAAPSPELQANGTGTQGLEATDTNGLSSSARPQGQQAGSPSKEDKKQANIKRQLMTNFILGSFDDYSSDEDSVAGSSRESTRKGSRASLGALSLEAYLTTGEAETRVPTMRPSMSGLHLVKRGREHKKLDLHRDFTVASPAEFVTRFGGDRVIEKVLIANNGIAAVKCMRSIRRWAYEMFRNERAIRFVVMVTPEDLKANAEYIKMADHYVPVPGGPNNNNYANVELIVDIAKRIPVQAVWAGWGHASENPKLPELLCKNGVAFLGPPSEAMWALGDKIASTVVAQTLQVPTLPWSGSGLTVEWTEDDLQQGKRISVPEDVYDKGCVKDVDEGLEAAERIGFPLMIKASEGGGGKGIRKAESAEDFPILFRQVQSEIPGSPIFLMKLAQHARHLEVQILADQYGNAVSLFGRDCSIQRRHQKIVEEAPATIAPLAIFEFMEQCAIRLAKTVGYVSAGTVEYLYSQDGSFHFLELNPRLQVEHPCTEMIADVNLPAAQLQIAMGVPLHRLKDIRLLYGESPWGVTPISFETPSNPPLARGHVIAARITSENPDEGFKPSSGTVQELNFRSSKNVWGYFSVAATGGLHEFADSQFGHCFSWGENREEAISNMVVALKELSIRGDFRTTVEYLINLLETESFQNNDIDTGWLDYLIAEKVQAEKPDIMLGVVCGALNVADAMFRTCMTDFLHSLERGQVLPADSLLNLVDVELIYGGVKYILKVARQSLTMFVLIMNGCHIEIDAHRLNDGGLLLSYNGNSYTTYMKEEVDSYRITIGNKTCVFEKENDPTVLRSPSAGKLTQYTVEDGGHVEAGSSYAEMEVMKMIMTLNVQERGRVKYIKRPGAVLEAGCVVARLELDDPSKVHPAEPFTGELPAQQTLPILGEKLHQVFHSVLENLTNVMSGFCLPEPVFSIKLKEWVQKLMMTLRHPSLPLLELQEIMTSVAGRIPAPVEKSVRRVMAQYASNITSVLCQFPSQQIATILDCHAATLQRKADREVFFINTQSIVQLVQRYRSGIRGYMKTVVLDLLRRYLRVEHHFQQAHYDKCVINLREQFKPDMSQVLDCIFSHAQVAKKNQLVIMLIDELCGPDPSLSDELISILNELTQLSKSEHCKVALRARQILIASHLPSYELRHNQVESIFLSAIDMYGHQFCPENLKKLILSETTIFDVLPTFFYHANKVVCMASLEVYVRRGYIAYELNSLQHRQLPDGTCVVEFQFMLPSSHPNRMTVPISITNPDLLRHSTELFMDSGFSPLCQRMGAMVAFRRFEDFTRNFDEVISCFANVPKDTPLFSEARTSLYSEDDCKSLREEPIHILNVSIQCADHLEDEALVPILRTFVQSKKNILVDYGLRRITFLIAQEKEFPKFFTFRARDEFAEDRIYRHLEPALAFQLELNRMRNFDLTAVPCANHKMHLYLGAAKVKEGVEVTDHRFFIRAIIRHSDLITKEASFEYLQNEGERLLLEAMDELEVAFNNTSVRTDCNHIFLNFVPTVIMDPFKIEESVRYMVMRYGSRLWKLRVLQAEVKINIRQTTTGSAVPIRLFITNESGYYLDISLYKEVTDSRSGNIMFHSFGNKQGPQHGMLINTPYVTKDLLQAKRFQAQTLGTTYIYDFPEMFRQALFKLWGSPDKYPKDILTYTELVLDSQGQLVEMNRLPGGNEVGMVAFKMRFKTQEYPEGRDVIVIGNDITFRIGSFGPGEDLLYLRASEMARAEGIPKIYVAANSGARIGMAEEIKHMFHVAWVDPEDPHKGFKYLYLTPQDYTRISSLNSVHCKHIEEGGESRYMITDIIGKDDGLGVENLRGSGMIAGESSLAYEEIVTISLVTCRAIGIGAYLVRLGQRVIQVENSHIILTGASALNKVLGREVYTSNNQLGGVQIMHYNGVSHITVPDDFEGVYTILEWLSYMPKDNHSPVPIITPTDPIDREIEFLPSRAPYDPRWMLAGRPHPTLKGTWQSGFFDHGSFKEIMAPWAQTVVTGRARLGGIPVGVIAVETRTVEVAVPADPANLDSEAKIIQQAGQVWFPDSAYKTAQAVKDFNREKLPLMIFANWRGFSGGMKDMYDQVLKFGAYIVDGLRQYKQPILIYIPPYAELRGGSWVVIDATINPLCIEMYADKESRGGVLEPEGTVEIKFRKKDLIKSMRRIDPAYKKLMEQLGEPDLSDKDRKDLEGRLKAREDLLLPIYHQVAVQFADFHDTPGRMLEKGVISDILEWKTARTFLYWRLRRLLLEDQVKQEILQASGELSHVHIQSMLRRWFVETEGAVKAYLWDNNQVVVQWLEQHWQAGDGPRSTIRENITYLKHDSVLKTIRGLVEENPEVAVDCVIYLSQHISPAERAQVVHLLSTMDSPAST

For the compound `CCOc1ccccc1CCn1c(=O)n(C(C)(C)C(N)=O)c(=O)c2c(C)c(-c3ncco3)sc21` [I-139, 2-[1-[2-(2-ethoxyphenyl)ethyl]-5-methyl-6-(1,3-oxazol-2-yl)-2,4-dioxo-1H,2H,3H,4H-thieno[2,3-d]pyrimidin-3-yl]-2-methylpropanamide], the pIC50 at ACC1 and on ACC2 was > 6.00 throughout.

`Cc1c(-c2ncco2)sc2c1c(=O)n(C(C)(C)C(=O)O)c(=O)n2C[C@H](OC1CCCCC1)c1ccccc1` [I-140, 2-[1-[(2R)-2-(cyclohexyloxy)-2-phenylethyl]-5-methyl-6-(1,3-oxazol-2-yl)-2,4-dioxo-1H,2H,3H,4H-thieno[2,3-d]pyrimidin-3-yl]-2-methylpropanoic acid]: the pIC50 on ACC1 was > 7.00; on ACC2, > 6.00.

On to `Cc1c(-c2ncco2)sc2c1c(=O)n(C(C)(C)C(=O)O)c(=O)n2C[C@H](OC1CCC(=O)CC1)c1ccccc1` [I-145, (R)-2-methyl-2-(5-methyl-6-(oxazol-2-yl)-2,4-dioxo-1-(2-((4-oxocyclohexyl)oxy)-2-phenylethyl)-1,2-dihydrothieno[2,3-d]pyrimidin-3(4H)-yl)propanoic acid], for which the pIC50 is > 7.00 on ACC1 and > 6.00 at ACC2.

On to `CCCc1ccccc1CCn1c(=O)n(C(C)(C)C(=O)O)c(=O)c2c(C)c(-c3ncco3)sc21` [I-147, 2-methyl-2-[5-methyl-6-(1,3-oxazol-2-yl)-2,4-dioxo-1-[2-(2-propylphenyl)ethyl]-1H,2H,3H,4H-thieno[2,3-d]pyrimidin-3-yl]propanoic acid], for which the pIC50 at ACC1 and on ACC2 was > 6.00 each time.

In the case of `Cc1c(-c2ncco2)sc2c1c(=O)n(C(C)(C)C(=O)O)c(=O)n2C[C@H](O[C@H]1CC[C@](C)(O)CC1)c1ccccc1` [I-163, 2-(1-((R)-2-(((1r,4R)-4-hydroxy-4-methylcyclohexyl)oxy)-2-phenylethyl)-5-methyl-6-(oxazol-2-yl)-2,4-dioxo-1,2-dihydrothieno[2,3-d]pyrimidin-3(4H)-yl)-2-methylpropanoic acid], the pIC50 at ACC1 and on ACC2 was > 6.00 throughout.

For `Cc1c(-c2ncco2)sc2c1c(=O)n(C(C)(C)C(=O)O)c(=O)n2C[C@H](OC1CCC(O)CC1)c1ccccc1` (stereo partly drawn) [I-164, 2-[1-[(2R)-2-[(4-hydroxycyclohexyl)oxy]-2-phenylethyl]-5-methyl-6-(1,3-oxazol-2-yl)-2,4-dioxo-1H,2H,3H,4H-thieno[2,3-d]pyrimidin-3-yl]-2-methylpropanoic acid], the pIC50 at ACC1 and on ACC2 was > 7.00 each time.

Regarding `CCOc1ccccc1[C@H](Cn1c(=O)n(C(C)(C)C(=O)O)c(=O)c2c(C)c(-c3ncco3)sc21)OC(C)C` [I-177, 2-[1-[(2R)-2-(2-ethoxyphenyl)-2-(propan-2-yloxy)ethyl]-5-methyl-6-(1,3-oxazol-2-yl)-2,4-dioxo-1H,2H,3H,4H-thieno[2,3-d]pyrimidin-3-yl]-2-methylpropanoic acid], the pIC50 on ACC1 and on ACC2 was > 7.00 throughout.

On to `Cc1c(-c2ncco2)sc2c1c(=O)n(C(C)(C)C(=O)O)c(=O)n2C[C@H](OC[C@@H](C)O)c1ccccc1` [I-179, 2-[1-[(2R)-2-[(2R)-2-hydroxypropoxy]-2-phenylethyl]-5-methyl-6-(1,3-oxazol-2-yl)-2,4-dioxo-1H,2H,3H,4H-thieno[2,3-d]pyrimidin-3-yl]-2-methylpropanoic acid], for which the pIC50 on ACC1 and at ACC2 was > 7.00 throughout.

In the case of `CCc1ccccc1[C@H](Cn1c(=O)n(C(C)(C)C(=O)O)c(=O)c2c(C)c(-c3ncco3)sc21)OC(C)C` [I-180, 2-[1-[(2R)-2-(2-ethylphenyl)-2-(propan-2-yloxy)ethyl]-5-methyl-6-(1,3-oxazol-2-yl)-2,4-dioxo-1H,2H,3H,4H-thieno[2,3-d]pyrimidin-3-yl]-2-methylpropanoic acid], the pIC50 at ACC1 and at ACC2 was > 7.00 throughout.

For the compound `COc1ccccc1[C@H](Cn1c(=O)n(C(C)(C)C(=O)N2CCC2)c(=O)c2c(C)c(-c3ncco3)sc21)OC(C)C` [I-237, 3-[1-(azetidin-1-yl)-2-methyl-1-oxopropan-2-yl]-1-[(2R)-2-(2-methoxyphenyl)-2-(propan-2-yloxy)ethyl]-5-methyl-6-(1,3-oxazol-2-yl)-1H,2H,3H,4H-thieno[2,3-d]pyrimidine-2,4-dione], the pIC50 on ACC1 and at ACC2 was > 7.00 throughout.

Turning to `COc1ccccc1[C@H](Cn1c(=O)n(C(C)(C)C(=O)N2CCCC2)c(=O)c2c(C)c(-c3ncco3)sc21)OC(C)C` [I-238, 1-[(2R)-2-(2-methoxyphenyl)-2-(propan-2-yloxy)ethyl]-5-methyl-3-[2-methyl-1-oxo-1-(pyrrolidin-1-yl)propan-2-yl]-6-(1,3-oxazol-2-yl)-1H,2H,3H,4H-thieno[2,3-d]pyrimidine-2,4-dione], the pIC50 on ACC1 and at ACC2 was > 7.00 throughout.

With `COc1ccccc1[C@H](Cn1c(=O)n(C(C)(C)C(=O)N2CCCCC2)c(=O)c2c(C)c(-c3ncco3)sc21)OC(C)C` [I-239, 1-[(2R)-2-(2-methoxyphenyl)-2-(propan-2-yloxy)ethyl]-5-methyl-3-[2-methyl-1-oxo-1-(piperidin-1-yl)propan-2-yl]-6-(1,3-oxazol-2-yl)-1H,2H,3H,4H-thieno[2,3-d]pyrimidine-2,4-dione], the pIC50 at ACC1 and at ACC2 was > 7.00 in each case.

`COc1ccccc1[C@H](Cn1c(=O)n(C(C)(C)C(=O)N2CC(O)C2)c(=O)c2c(C)c(-c3ncco3)sc21)OC(C)C` [I-241, 3-[1-(3-hydroxyazetidin-1-yl)-2-methyl-1-oxopropan-2-yl]-1-[(2R)-2-(2-methoxyphenyl)-2-(propan-2-yloxy)ethyl]-5-methyl-6-(1,3-oxazol-2-yl)-1H,2H,3H,4H-thieno[2,3-d]pyrimidine-2,4-dione]: the pIC50 on ACC1 and at ACC2 was > 7.00 in each case.

Take `COc1ccccc1[C@H](Cn1c(=O)n(C(C)(C)C(=O)NC(C)C)c(=O)c2c(C)c(-c3ncco3)sc21)OC(C)C` [I-242, 2-[1-[(2R)-2-(2-methoxyphenyl)-2-(propan-2-yloxy)ethyl]-5-methyl-6-(1,3-oxazol-2-yl)-2,4-dioxo-1H,2H,3H,4H-thieno[2,3-d]pyrimidin-3-yl]-2-methyl-N-(propan-2-yl)propanamide]: the pIC50 on ACC1 and at ACC2 was > 7.00 in each case.

Take `CCO[C@@H](Cn1c(=O)n(C(C)(C)C(=O)O)c(=O)c2c(C)c(-c3ncco3)sc21)c1ccccc1OC` [I-243, 2-[1-[(2R)-2-ethoxy-2-(2-methoxyphenyl)ethyl]-5-methyl-6-(1,3-oxazol-2-yl)-2,4-dioxo-1H,2H,3H,4H-thieno[2,3-d]pyrimidin-3-yl]-2-methylpropanoic acid]: the pIC50 on ACC1 and at ACC2 was > 7.00 throughout.

Take `CCc1ccccc1[C@H](Cn1c(=O)n(C(C)(C)C(=O)O)c(=O)c2c(C)c(-c3ncco3)sc21)O[C@H]1CC[C@H](O)CC1` [I-244, 2-(1-((R)-2-(2-ethylphenyl)-2-(((1r,4R)-4-hydroxycyclohexyl)oxy)ethyl)-5-methyl-6-(oxazol-2-yl)-2,4-dioxo-1,2-dihydrothieno[2,3-d]pyrimidin-3(4H)-yl)-2-methylpropanoic acid]: the pIC50 at ACC1 and at ACC2 was > 7.00 throughout.

(Values after patent publication US9453026B2, “ACC inhibitors and uses thereof” (Gilead Apollo, Inc., priority 2011, dated 2016).)
